PubChem BioAssay (NCI)
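All cell lines were grown in 96-well plates and treated with compound for 48 hours. Abbreviation: GI50, concentration required for 50% inhibition of growth. TGI is the concentration that stops growth completely.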

Assays:
Assay in all cases: growth of human tumour cells (NCI), 48 h
SNB-75 CNS = system: SNB-75 CNS
MDA-MB-435 = system: MDA-MB-435
EKVX NSCLC = system: EKVX NSCLC
M14 melanoma = system: M14 melanoma
U251 CNS = system: U251 CNS
A498 renal = system: A498 renal
HL-60(TB) leukemia = system: HL-60(TB) leukemia
COLO 205 colon = system: COLO 205 colon
SR leukemia = system: SR leukemia
NCI-H522 lung = system: NCI-H522 lung
HOP-92 NSCLC = system: HOP-92 NSCLC
DU-145 prostate = system: DU-145 prostate
NCI-H460 lung = system: NCI-H460 lung
MCF7 breast = system: MCF7 breast
786-0 renal = system: 786-0 renal
MALME-3M melanoma = system: MALME-3M melanoma
TK-10 renal = system: TK-10 renal
HT29 colon = system: HT29 colon
HOP-62 NSCLC = system: HOP-62 NSCLC
HCC-2998 colon = system: HCC-2998 colon
UACC-257 melanoma = system: UACC-257 melanoma
SW-620 colon = system: SW-620 colon
NCI-H23 lung = system: NCI-H23 lung
BT-549 breast = system: BT-549 breast
HS 578T breast = system: HS 578T breast
T-47D breast = system: T-47D breast
NCI-H226 lung = system: NCI-H226 lung
RXF 393 renal = system: RXF 393 renal
A549 NSCLC = system: A549 NSCLC
PC-3 prostate = system: PC-3 prostate
SK-MEL-5 melanoma = system: SK-MEL-5 melanoma
LOX IMVI melanoma = system: LOX IMVI melanoma
OVCAR-5 ovarian = system: OVCAR-5 ovarian
SF-295 CNS = system: SF-295 CNS
HCT-15 colon = system: HCT-15 colon
OVCAR-8 ovarian = system: OVCAR-8 ovarian
MDA-MB-231 breast = system: MDA-MB-231 breast
UACC-62 melanoma = system: UACC-62 melanoma
OVCAR-3 ovarian = system: OVCAR-3 ovarian
OVCAR-4 ovarian = system: OVCAR-4 ovarian
SF-268 CNS = system: SF-268 CNS
MOLT-4 leukemia = system: MOLT-4 leukemia
SK-OV-3 ovarian = system: SK-OV-3 ovarian
IGROV1 ovarian = system: IGROV1 ovarian
SK-MEL-2 melanoma = system: SK-MEL-2 melanoma
HCT-116 colon = system: HCT-116 colon
CAKI-1 renal = system: CAKI-1 renal
SK-MEL-28 melanoma = system: SK-MEL-28 melanoma
SF-539 CNS = system: SF-539 CNS
RPMI-8226 leukemia = system: RPMI-8226 leukemia
NCI/ADR-RES ovarian = system: NCI/ADR-RES ovarian
SN12C renal = system: SN12C renal
CCRF-CEM leukemia = system: CCRF-CEM leukemia
SNB-19 CNS = system: SNB-19 CNS
K-562 leukemia = system: K-562 leukemia
KM12 colon = system: KM12 colon
UO-31 renal = system: UO-31 renal
ACHN renal = system: ACHN renal

Work on `Cc1ccc2nc3ccccc3c(NCc3ccccc3)c2c1` yielded a GI50 (SNB-75 CNS) of 5.68 µM, a TGI (SNB-75 CNS) of 11.9 µM and a GI50 (MDA-MB-435) of 4.72 µM. The TGI (MDA-MB-435) was 10.8 µM, the GI50 (EKVX NSCLC) was 5.07 µM and the TGI (EKVX NSCLC) was 12.9 µM. The GI50 (M14 melanoma) was 5.83 µM, the TGI (M14 melanoma) was 13 µM and the GI50 (U251 CNS) was 2.49 µM. For the same molecule, the TGI (U251 CNS) was 10.2 µM, the GI50 (A498 renal) was 1.24 µM and the TGI (A498 renal) was 6.9 µM. For the same molecule, the GI50 (HL-60(TB) leukemia) was 3.49 µM, the TGI (HL-60(TB) leukemia) was 12.7 µM and the GI50 (COLO 205 colon) was 1.47 µM. For the same molecule, the TGI (COLO 205 colon) was 6.46 µM, the GI50 (SR leukemia) was 1.31 µM and the TGI (SR leukemia) was 3.62 µM. For the same molecule, the GI50 (NCI-H522 lung) was 2.72 µM, the TGI (NCI-H522 lung) was 12.6 µM and the GI50 (HOP-92 NSCLC) was 1.34 µM. For the same molecule, the TGI (HOP-92 NSCLC) was 7.56 µM, the GI50 (DU-145 prostate) was 2.56 µM and the TGI (DU-145 prostate) was 8.83 µM. It also gave a GI50 (NCI-H460 lung) of 2.07 µM, a TGI (NCI-H460 lung) of 7.44 µM and a GI50 (MCF7 breast) of 1.8 µM. For the same molecule, the TGI (MCF7 breast) was 7.93 µM, the GI50 (786-0 renal) was 2.24 µM and the TGI (786-0 renal) was 8.37 µM. The GI50 (MALME-3M melanoma) was 4.25 µM, the TGI (MALME-3M melanoma) was 11 µM and the GI50 (TK-10 renal) was 6.43 µM. The TGI (TK-10 renal) was 13.9 µM, the GI50 (HT29 colon) was 1.54 µM and the TGI (HT29 colon) was 7.43 µM. For the same molecule, the GI50 (HOP-62 NSCLC) was 3.77 µM, the TGI (HOP-62 NSCLC) was 12.5 µM and the GI50 (HCC-2998 colon) was 1.86 µM. For the same molecule, the TGI (HCC-2998 colon) was 6.86 µM, the GI50 (UACC-257 melanoma) was 7.77 µM and the TGI (UACC-257 melanoma) was 17.8 µM. It also gave a GI50 (SW-620 colon) of 1.76 µM, a TGI (SW-620 colon) of 7.85 µM and a GI50 (NCI-H23 lung) of 3.69 µM. It also gave a TGI (NCI-H23 lung) of 11.9 µM, a GI50 (BT-549 breast) of 5.13 µM and a TGI (BT-549 breast) of 11.7 µM. It also gave a GI50 (HS 578T breast) of 5.14 µM, a TGI (HS 578T breast) of 15.4 µM and a GI50 (T-47D breast) of 7 µM. For the same molecule, the TGI (T-47D breast) was 18.8 µM, the GI50 (NCI-H226 lung) was 3.59 µM and the TGI (NCI-H226 lung) was 12 µM. For the same molecule, the GI50 (RXF 393 renal) was 1.42 µM, the TGI (RXF 393 renal) was 5.4 µM and the GI50 (A549 NSCLC) was 2.63 µM. For the same molecule, the TGI (A549 NSCLC) was 10.9 µM, the GI50 (PC-3 prostate) was 1.94 µM and the TGI (PC-3 prostate) was 9.38 µM. The GI50 (SK-MEL-5 melanoma) was 4.46 µM, the TGI (SK-MEL-5 melanoma) was 10.5 µM and the GI50 (LOX IMVI melanoma) was 1.67 µM. For the same molecule, the TGI (LOX IMVI melanoma) was 6.15 µM, the GI50 (OVCAR-5 ovarian) was 2.81 µM and the TGI (OVCAR-5 ovarian) was 9.92 µM. For the same molecule, the GI50 (SF-295 CNS) was 2.28 µM, the TGI (SF-295 CNS) was 8.58 µM and the GI50 (HCT-15 colon) was 2.01 µM. For the same molecule, the TGI (HCT-15 colon) was 7.64 µM, the GI50 (OVCAR-8 ovarian) was 2.32 µM and the TGI (OVCAR-8 ovarian) was 11.1 µM. It also gave a GI50 (MDA-MB-231 breast) of 3.33 µM, a TGI (MDA-MB-231 breast) of 10.5 µM and a GI50 (UACC-62 melanoma) of 5.9 µM. The TGI (UACC-62 melanoma) was 12.8 µM, the GI50 (OVCAR-3 ovarian) was 3.09 µM and the TGI (OVCAR-3 ovarian) was 9.97 µM. For the same molecule, the GI50 (OVCAR-4 ovarian) was 2.64 µM, the TGI (OVCAR-4 ovarian) was 9.42 µM and the GI50 (SF-268 CNS) was 3.83 µM. For the same molecule, the TGI (SF-268 CNS) was 10.6 µM, the GI50 (MOLT-4 leukemia) was 1.5 µM and the TGI (MOLT-4 leukemia) was 8.73 µM. For the same molecule, the GI50 (SK-OV-3 ovarian) was 6.05 µM, the TGI (SK-OV-3 ovarian) was 12.9 µM and the GI50 (IGROV1 ovarian) was 2.01 µM. It also gave a TGI (IGROV1 ovarian) of 9.2 µM, a GI50 (SK-MEL-2 melanoma) of 7.79 µM and a TGI (SK-MEL-2 melanoma) of 16 µM. The GI50 (HCT-116 colon) was 1.44 µM, the TGI (HCT-116 colon) was 6.62 µM and the GI50 (CAKI-1 renal) was 2.39 µM. It also gave a TGI (CAKI-1 renal) of 9.26 µM, a GI50 (SK-MEL-28 melanoma) of 6.67 µM and a TGI (SK-MEL-28 melanoma) of 14 µM. For the same molecule, the GI50 (SF-539 CNS) was 2.43 µM, the TGI (SF-539 CNS) was 9.07 µM and the GI50 (RPMI-8226 leukemia) was 1.56 µM. The TGI (RPMI-8226 leukemia) was 6.45 µM, the GI50 (NCI/ADR-RES ovarian) was 2.46 µM and the TGI (NCI/ADR-RES ovarian) was 10.6 µM. The GI50 (SN12C renal) was 2.41 µM, the TGI (SN12C renal) was 9.15 µM and the GI50 (CCRF-CEM leukemia) was 2.12 µM. It also gave a TGI (CCRF-CEM leukemia) of 50 µM, a GI50 (SNB-19 CNS) of 4.01 µM and a TGI (SNB-19 CNS) of 11 µM. For the same molecule, the GI50 (K-562 leukemia) was 1.46 µM, the TGI (K-562 leukemia) was 8.78 µM and the GI50 (KM12 colon) was 5.13 µM. The TGI (KM12 colon) was 12.6 µM, the GI50 (UO-31 renal) was 1.44 µM and the TGI (UO-31 renal) was 7.5 µM. For the same molecule, the GI50 (ACHN renal) was 2.39 µM and the TGI (ACHN renal) was 8.88 µM.
